{"source": "patent US8865624B2", "about": "“Inhibitor for tobacco axillary bud growth and method for inhibiting tobacco axillary bud growth” (SDS Biotech K.K., priority 2010, dated 2014)", "key": {"[1]": {"tested_on": "Tobacco Tsukuba 1 (flue-cured cultivar) axillary buds", "experiment": "Tobacco axillary bud growth inhibition test, flue-cured cultivar", "assay_type": "in vivo, Nicotiana tabacum", "settings": "Nicotiana tabacum, 672 h, 28 days after the spraying, read-out: Axillary bud growth inhibition ratio", "protocol": "(§1) Tobacco seedlings of Tsukuba 1 (flue-cured cultivar) and Michinoku 1 (burley cultivar) were transplanted to 1/5000a Wagner pots filled with Kureha garden nursery soil. The plants were grown in a glasshouse, and the floral axis parts were removed at the time of single-flower bloom of tobacco (top pruning).\n(§2) The formulations of the inhibitors for tobacco axillary bud growth obtained in Formulation Examples 1 to 10 above were each diluted with water to predetermined concentrations, and 20 ml of the water-diluted solutions of the respective inhibitors were separately sprayed using a contact-type axillary bud inhibitor spraying instrument equipped with a spot exhaust nozzle (Examples 1 to 11 and 12 to 22). In addition, butralin (trade name: Blue Ribbon) (Comparative Examples 1 and 3) and decyl alcohol (trade name: Contact) (Comparative Examples 2 and 4) were used for tests as comparative examples in the same manner as above. In the cases of both the flue-cured cultivar and burley cultivar, one plant was planted per pot, and the tests were carried out in duplicate.\n(§3) For the respective cases, states of inhibition of axillary bud growth 28 days after the spraying were investigated together with untreated groups sprayed with no inhibitor, and axillary bud growth inhibition ratios were calculated by the following equation. Axillary bud growth inhibition ratio=(fresh weight of axillary buds per plant of untreated group−fresh weight of axillary buds per plant of treated group)÷(fresh weight of axillary buds per plant of untreated group)×100 [Math. 1]\n(§4) The formulation of Formulation Example 1 (cafenstrole), Formulation Example 2 (thenylchlor) or Formulation Example 10 (propisochlor) above was diluted with water to predetermined concentrations and mixed with decyl alcohol (manufactured by Wako Pure Chemical Industries, Ltd.), 2-ethylhexanol (manufactured by Wako Pure Chemical Industries, Ltd.) or geraniol (manufactured by Wako Pure Chemical Industries, Ltd.) at predetermined concentrations, and the resultant was adjusted and used for tests (Examples 23 to 31 and 32 to 40). In addition, as comparative examples, the formulation of Formulation Example 1, […], or Formulation Example 10 diluted with water to predetermined concentrations (Comparative Examples 5 to 7 and 11 to 13) and decyl alcohol, 2-ethylhexanol or geraniol diluted with water to a predetermined concentration were used for tests (Comparative Examples 8 to 10 and 14 to 16).\n(§5) The respective inhibitors were sprayed in the same manner as in Test Example 1, and states of inhibition of axillary bud growth 28 days after the spraying were investigated together with untreated groups sprayed with no inhibitor. Then, axillary bud growth inhibition ratios were calculated.\n(§6) The formulation of Formulation Example 11 (cafenstrole), Formulation Example 12 (thenylchlor) or Formulation Example 13 (chlorthal-dimethyl) above was diluted with water to predetermined concentrations, and the resultant was mixed, adjusted and used for tests (Examples 41 to 58 and 59 to 76). In addition, as comparative examples, the formulation of Formulation Example 11, Formulation Example 12 or Formulation Example 13 diluted with water to predetermined concentrations (Comparative Examples 21 to 29 and 34 to 42), butralin (trade name: Blue Ribbon) (Comparative Examples 17, 18, 30, and 31) and decyl alcohol (trade name: Contact) (Comparative Examples 19, 20, 32, and 33) were used for tests in the same manner as above."}, "[2]": {"tested_on": "Tobacco Tsukuba 1 (flue-cured cultivar) leaves (first to fourth leaves from the top)", "experiment": "Harmful effect of inhibitor on tobacco leaves, flue-cured cultivar", "assay_type": "in vivo, Nicotiana tabacum", "settings": "in vivo", "protocol": "as §1, §2\n(§7) Further, the presence or absence of the harmful effect of each inhibitor was evaluated in one of the following four categories depending on the degrees of growth inhibition, gangrene, change in color, deformation and the like of leaves (first to fourth leaves from the top).\n(§8) Large: A severely harmful effect was observed.\n(§9) Middle: A clearly harmful effect was observed.\n(§10) Small: A slightly harmful effect was observed.\n(§11) Absent: No harmful effect was observed.\nas §6, §5"}, "[3]": {"tested_on": "Tobacco Michinoku 1 (burley cultivar) axillary buds", "experiment": "Tobacco axillary bud growth inhibition test, burley cultivar", "assay_type": "in vivo", "settings": "Nicotiana tabacum, 672 h, 28 days after the spraying, read-out: Axillary bud growth inhibition ratio", "protocol": "as §1, §2, §3, §4, §5, §6"}, "[4]": {"tested_on": "Tobacco Michinoku 1 (burley cultivar) leaves (first to fourth leaves from the top)", "experiment": "Harmful effect of inhibitor on tobacco leaves, burley cultivar", "assay_type": "in vivo, Nicotiana tabacum", "settings": "in vivo", "protocol": "as §1, §2, §7, §8, §9, §10, §11, §6, §5"}}, "data": [{"smiles": "COc1ccsc1CN(C(=O)CCl)c1c(C)cccc1C", "note": "[Thenylchlor]", "values": [{"measurement": "pest or weed control at 0.1 %", "setting": "[1]; Table 1, flue-cured cultivar, concentration of active ingredient 0.1%", "result": 96, "unit": "%"}, {"measurement": "pest or weed control at 0.05 %", "setting": "[1]; Table 3, flue-cured cultivar, concentration of active ingredient 0.05%", "result": 74, "unit": "%"}, {"measurement": "pest or weed control at 0.002 %", "setting": "[1]; Table 5, flue-cured cultivar, concentration of active ingredient 0.002%", "result": 12, "unit": "%"}, {"measurement": "pest or weed control at 0.005 %", "setting": "[1]; Table 5, flue-cured cultivar, concentration of active ingredient 0.005%", "result": 14, "unit": "%"}, {"measurement": "pest or weed control at 0.01 %", "setting": "[1]; Table 5, flue-cured cultivar, concentration of active ingredient 0.01%", "result": 22, "unit": "%"}, {"measurement": "Harmful effect of inhibitor", "setting": "[2]", "result": "Absent"}, {"measurement": "pest or weed control at 0.1 %", "setting": "[3]; Table 2, burley cultivar, concentration of active ingredient 0.1%", "result": 95, "unit": "%"}, {"measurement": "pest or weed control at 0.05 %", "setting": "[3]; Table 4, burley cultivar, concentration of active ingredient 0.05%", "result": 70, "unit": "%"}, {"measurement": "pest or weed control at 0.002 %", "setting": "[3]; Table 6, burley cultivar, concentration of active ingredient 0.002%", "result": 11, "unit": "%"}, {"measurement": "pest or weed control at 0.005 %", "setting": "[3]; Table 6, burley cultivar, concentration of active ingredient 0.005%", "result": 22, "unit": "%"}, {"measurement": "pest or weed control at 0.01 %", "setting": "[3]; Table 6, burley cultivar, concentration of active ingredient 0.01%", "result": 28, "unit": "%"}, {"measurement": "Harmful effect of inhibitor", "setting": "[4]", "result": "Absent"}]}]}
